Data reported in US12139520B2 (priority 2020, dated 2024).
Numbered stars: 1 amine (or outer) side, 2 acyl side, 3 side chain; on linkers, the order of the positions; unused ones are H or OH. Bridge positions count the residues as written; N and C are the ends. Square brackets hold non-standard residues; d marks the D form. Peptide text beside a SMILES is read from it. * marks the point of attachment. C20 diacid = O=C(O)CCCCCCCCCCCCCCCCCCC(=O)*; γGlu = O=C(O)[C@H](CCC(=O)[*:2])N[*:1]; Hyp = O=C(O)[C@@H]1C[C@@H](O)CN1

Columns and labels:
hAM1 receptor = hAM1 receptor (Homo sapiens, UniProt O60895+Q16602); experiment: cAMP assay for in vitro receptor activation, hAM1-R; type: cell-based; conditions: cAMP assay, hAM1 receptor; read-out: hAM1R EC50
Summary of the method: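 Receptor activation, read as cAMP, was assessed in thawed cells of a monoclonal hAM1-overexpressing stable line, plated at 8000 cells/well in DPBS supplemented with 0.05% casein and 0.5 mM IBMX.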

hAMY3 receptor = biological target: T1, hAMY3 receptor (Homo sapiens, UniProt O60896+P30988); experiment: cAMP assay for in vitro receptor activation, hAMY3-R; type: cell-based; conditions: cAMP assay, hAMY3 receptor; read-out: hAMY3R EC50
T1 sequence (P30988 25-474): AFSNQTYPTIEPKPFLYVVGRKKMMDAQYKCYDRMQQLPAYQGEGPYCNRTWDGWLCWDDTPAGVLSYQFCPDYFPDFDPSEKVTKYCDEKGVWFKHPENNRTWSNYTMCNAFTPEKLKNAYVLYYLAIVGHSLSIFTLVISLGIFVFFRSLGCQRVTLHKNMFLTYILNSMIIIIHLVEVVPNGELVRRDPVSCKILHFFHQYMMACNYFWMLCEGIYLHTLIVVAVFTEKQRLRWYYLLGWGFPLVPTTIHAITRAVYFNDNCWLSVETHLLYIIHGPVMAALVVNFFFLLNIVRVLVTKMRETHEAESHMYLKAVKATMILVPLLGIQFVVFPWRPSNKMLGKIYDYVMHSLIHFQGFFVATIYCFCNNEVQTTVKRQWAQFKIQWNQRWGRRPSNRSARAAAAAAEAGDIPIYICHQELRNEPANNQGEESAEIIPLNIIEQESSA
T1 sequence (O60896 24-148 partner): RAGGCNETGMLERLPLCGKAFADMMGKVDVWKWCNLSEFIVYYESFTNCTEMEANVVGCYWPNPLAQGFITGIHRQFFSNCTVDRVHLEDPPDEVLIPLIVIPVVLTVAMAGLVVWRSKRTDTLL
Summary of the method: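 Receptor activation was measured as cAMP accumulation in a monoclonal cell line stably overexpressing hAMY3. Stimulation with graded doses lasted 30 min at room temperature in the presence of 0.5 mM IBMX, with human amylin as positive control.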

hAM1 receptor, sequence (Q16602 23-461): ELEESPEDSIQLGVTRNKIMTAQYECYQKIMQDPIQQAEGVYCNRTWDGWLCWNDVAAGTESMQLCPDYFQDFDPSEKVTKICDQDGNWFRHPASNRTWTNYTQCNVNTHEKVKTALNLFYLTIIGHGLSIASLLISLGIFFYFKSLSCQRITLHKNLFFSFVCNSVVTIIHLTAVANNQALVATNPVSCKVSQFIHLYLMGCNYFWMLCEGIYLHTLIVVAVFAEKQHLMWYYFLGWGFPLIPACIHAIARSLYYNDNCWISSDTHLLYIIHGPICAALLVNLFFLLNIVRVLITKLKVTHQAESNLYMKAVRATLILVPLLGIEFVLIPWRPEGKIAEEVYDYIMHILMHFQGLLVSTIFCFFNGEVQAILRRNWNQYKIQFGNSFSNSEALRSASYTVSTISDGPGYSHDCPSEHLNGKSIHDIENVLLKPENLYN
hAM1 receptor, sequence (O60895 43-175 partner): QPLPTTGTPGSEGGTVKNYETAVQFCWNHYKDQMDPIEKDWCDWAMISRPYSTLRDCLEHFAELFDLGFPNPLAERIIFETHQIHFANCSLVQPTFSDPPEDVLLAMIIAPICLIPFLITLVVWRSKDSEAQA

EC50 (hAM1 receptor) | EC50 (hAMY3 receptor) | Structure (SMILES)
> 5000 nM | 0.011 nM | CC[C@H](C)[C@H](NC(=O)[C@H](CCC(N)=O)NC(=O)[C@H](CCC(=O)O)NC(=O)[C@H](C)NC(=O)[C@H](CC(C)C)NC(=O)[C@H](CCCNC(=N)N)NC(=O)[C@H](CCC(N)=O)NC(=O)[C@@H](NC(=O)[C@@H](NC(=O)[C@@H]1CSSC[C@H](NC(=O)[C@H](CCCCN)NC(=O)CC[C@H](NC(=O)CCCCCCCCCCCCCCCCCCC(=O)O)C(=O)O)C(=O)N[C@@H](CC(N)=O)C(=O)N[C@@H]([C@@H](C)O)C(=O)N[C@@H](C)C(=O)N[C@@H]([C@@H](C)O)C(=O)N1)[C@@H](C)O)C(C)C)C(=O)N[C@@H](Cc1ccc(O)cc1)C(=O)N[C@@H](CCC(N)=O)C(=O)N[C@@H](Cc1ccccc1)C(=O)N[C@H](C(=O)N[C@@H](CC(=O)O)C(=O)N[C@@H](CCCCN)C(=O)N[C@@H](CC(=O)O)C(=O)N[C@@H](CCCCN)C(=O)N[C@@H](CC(=O)O)C(=O)N[C@@H](CC(N)=O)C(=O)N[C@H](C(=O)N[C@@H](C)C(=O)N1CCC[C@H]1C(=O)N1CCC[C@H]1C(=O)N[C@H](C(=O)N[C@@H](CC(N)=O)C(=O)N[C@H](C(=O)NCC(=O)N[C@@H](CO)C(=O)N[C@@H](CC(N)=O)C(=O)NCC(=O)N1C[C@H](O)C[C@H]1C(N)=O)C(C)C)[C@@H](C)O)C(C)C)[C@@H](C)O [compound 51] ({C20 diacid-γGlu}-KCNTATCTVQRLAEQIYQFTDKDKDNVAPPTNVGSNG[Hyp]-NH2; disulfide 2-7)
> 5000 nM | 0.016 nM | CC[C@H](C)[C@H](NC(=O)[C@H](CCC(N)=O)NC(=O)[C@H](Cc1c[nH]cn1)NC(=O)[C@H](C)NC(=O)[C@H](CC(C)C)NC(=O)[C@H](CCCNC(=N)N)NC(=O)[C@H](CCC(N)=O)NC(=O)[C@@H](NC(=O)[C@@H](NC(=O)[C@@H]1CSSC[C@H](NC(=O)[C@H](CCCCN)NC(=O)CC[C@H](NC(=O)CCCCCCCCCCCCCCCCCCC(=O)O)C(=O)O)C(=O)N[C@@H](CC(N)=O)C(=O)N[C@@H]([C@@H](C)O)C(=O)N[C@@H](C)C(=O)N[C@@H]([C@@H](C)O)C(=O)N1)[C@@H](C)O)C(C)C)C(=O)N[C@@H](C)C(=O)N[C@@H](CCC(N)=O)C(=O)N[C@@H](Cc1ccccc1)C(=O)N[C@@H](Cc1ccc(O)cc1)C(=O)N[C@@H](CC(=O)O)C(=O)N[C@@H](CCCCN)C(=O)N[C@@H](CC(=O)O)C(=O)N[C@@H](CCCCN)C(=O)N[C@@H](CC(=O)O)C(=O)N[C@@H](CC(N)=O)C(=O)N[C@H](C(=O)N[C@@H](C)C(=O)N1CCC[C@H]1C(=O)N1CCC[C@H]1C(=O)N[C@H](C(=O)N[C@@H](CC(N)=O)C(=O)N[C@H](C(=O)NCC(=O)N[C@@H](CO)C(=O)N[C@@H](CC(N)=O)C(=O)NCC(=O)N1C[C@H](O)C[C@H]1C(N)=O)C(C)C)[C@@H](C)O)C(C)C [compound 94] ({C20 diacid-γGlu}-KCNTATCTVQRLAHQIAQFYDKDKDNVAPPTNVGSNG[Hyp]-NH2; disulfide 2-7)
> 5000 nM | 0.015 nM | CC[C@H](C)[C@H](NC(=O)[C@H](CCC(N)=O)NC(=O)[C@H](Cc1c[nH]cn1)NC(=O)[C@H](C)NC(=O)[C@H](CC(C)C)NC(=O)[C@H](CCCNC(=N)N)NC(=O)[C@H](C)NC(=O)[C@@H](NC(=O)[C@@H](NC(=O)[C@@H]1CSSC[C@H](NC(=O)[C@H](CCCCN)NC(=O)CC[C@H](NC(=O)CCCCCCCCCCCCCCCCCCC(=O)O)C(=O)O)C(=O)N[C@@H](CC(N)=O)C(=O)N[C@@H]([C@@H](C)O)C(=O)N[C@@H](C)C(=O)N[C@@H]([C@@H](C)O)C(=O)N1)[C@@H](C)O)C(C)C)C(=O)N[C@@H](CC(N)=O)C(=O)N[C@@H](CCC(N)=O)C(=O)N[C@@H](Cc1ccccc1)C(=O)N[C@H](C(=O)N[C@@H](CC(=O)O)C(=O)N[C@@H](CCCCN)C(=O)N[C@@H](CC(=O)O)C(=O)N[C@@H](CCCCN)C(=O)N[C@@H](CC(=O)O)C(=O)N[C@@H](CC(N)=O)C(=O)N[C@H](C(=O)N[C@@H](C)C(=O)N1CCC[C@H]1C(=O)N1CCC[C@H]1C(=O)N[C@H](C(=O)N[C@@H](CC(N)=O)C(=O)N[C@H](C(=O)NCC(=O)N[C@@H](CO)C(=O)N[C@@H](CC(N)=O)C(=O)NCC(=O)N1C[C@H](O)C[C@H]1C(N)=O)C(C)C)[C@@H](C)O)C(C)C)[C@@H](C)O [compound 86] ({C20 diacid-γGlu}-KCNTATCTVARLAHQINQFTDKDKDNVAPPTNVGSNG[Hyp]-NH2; disulfide 2-7)
> 5000 nM | 0.026 nM | CC[C@H](C)[C@H](NC(=O)[C@H](CCC(N)=O)NC(=O)[C@H](CCC(=O)O)NC(=O)[C@H](C)NC(=O)[C@H](CC(C)C)NC(=O)[C@H](CCCNC(=N)N)NC(=O)[C@H](CCC(N)=O)NC(=O)[C@@H](NC(=O)[C@@H](NC(=O)[C@@H]1CSSC[C@H](NC(=O)[C@H](CCCCN)NC(=O)CC[C@H](NC(=O)CCCCCCCCCCCCCCCCCCC(=O)O)C(=O)O)C(=O)N[C@@H](CC(N)=O)C(=O)N[C@@H]([C@@H](C)O)C(=O)N[C@@H](C)C(=O)N[C@@H]([C@@H](C)O)C(=O)N1)[C@@H](C)O)C(C)C)C(=O)N[C@@H](Cc1ccc(O)cc1)C(=O)N[C@@H](CCC(N)=O)C(=O)N[C@@H](Cc1ccccc1)C(=O)N[C@H](C(=O)N[C@@H](CC(=O)O)C(=O)N[C@@H](CCCCN)C(=O)N[C@@H](C)C(=O)N[C@@H](CCCCN)C(=O)N[C@@H](CC(=O)O)C(=O)N[C@@H](CC(N)=O)C(=O)N[C@H](C(=O)N[C@@H](C)C(=O)N1CCC[C@H]1C(=O)N1CCC[C@H]1C(=O)N[C@H](C(=O)N[C@@H](CC(N)=O)C(=O)N[C@H](C(=O)NCC(=O)N[C@@H](CO)C(=O)N[C@@H](CC(N)=O)C(=O)NCC(=O)N1C[C@H](O)C[C@H]1C(N)=O)C(C)C)[C@@H](C)O)C(C)C)[C@@H](C)O [compound 122] ({C20 diacid-γGlu}-KCNTATCTVQRLAEQIYQFTDKAKDNVAPPTNVGSNG[Hyp]-NH2; disulfide 2-7)
> 5000 nM | 0.014 nM | CC[C@H](C)[C@H](NC(=O)[C@H](CCC(N)=O)NC(=O)[C@H](Cc1c[nH]cn1)NC(=O)[C@H](C)NC(=O)[C@H](CC(C)C)NC(=O)[C@H](CCCNC(=N)N)NC(=O)[C@H](CCC(N)=O)NC(=O)[C@@H](NC(=O)[C@@H](NC(=O)[C@@H]1CSSC[C@H](NC(=O)[C@H](CCCCN)NC(=O)CC[C@H](NC(=O)CCCCCCCCCCCCCCCCCCC(=O)O)C(=O)O)C(=O)N[C@@H](CC(N)=O)C(=O)N[C@@H]([C@@H](C)O)C(=O)N[C@@H](C)C(=O)N[C@@H]([C@@H](C)O)C(=O)N1)[C@@H](C)O)C(C)C)C(=O)N[C@@H](Cc1ccc(O)cc1)C(=O)N[C@@H](CCC(N)=O)C(=O)N[C@@H](Cc1ccccc1)C(=O)N[C@H](C(=O)N[C@@H](CC(=O)O)C(=O)N[C@@H](CCCCN)C(=O)N[C@@H](CC(=O)O)C(=O)N[C@@H](CCCCN)C(=O)N[C@@H](CC(=O)O)C(=O)N[C@@H](CC(N)=O)C(=O)N[C@H](C(=O)N[C@@H](C)C(=O)N1CCC[C@H]1C(=O)N1CCC[C@H]1C(=O)N[C@H](C(=O)N[C@@H](CC(N)=O)C(=O)N[C@H](C(=O)NCC(=O)N[C@@H](CO)C(=O)N[C@@H](CC(N)=O)C(=O)NCC(=O)N1C[C@H](O)C[C@H]1C(N)=O)C(C)C)[C@@H](C)O)C(C)C)[C@@H](C)O [compound 77] ({C20 diacid-γGlu}-KCNTATCTVQRLAHQIYQFTDKDKDNVAPPTNVGSNG[Hyp]-NH2; disulfide 2-7)
> 5000 nM | 0.016 nM | CC[C@H](C)[C@H](NC(=O)[C@H](CCC(N)=O)NC(=O)[C@H](CCC(=O)O)NC(=O)[C@H](C)NC(=O)[C@H](CC(C)C)NC(=O)[C@H](CCCNC(=N)N)NC(=O)[C@H](CCC(N)=O)NC(=O)[C@@H](NC(=O)[C@@H](NC(=O)[C@@H]1CSSC[C@H](NC(=O)[C@H](CCCCN)NC(=O)CC[C@H](NC(=O)CCCCCCCCCCCCCCCCCCC(=O)O)C(=O)O)C(=O)N[C@@H](C)C(=O)N[C@@H]([C@@H](C)O)C(=O)N[C@@H](C)C(=O)N[C@@H]([C@@H](C)O)C(=O)N1)[C@@H](C)O)C(C)C)C(=O)N[C@@H](Cc1ccc(O)cc1)C(=O)N[C@@H](CCC(N)=O)C(=O)N[C@@H](Cc1ccccc1)C(=O)N[C@H](C(=O)N[C@@H](CC(=O)O)C(=O)N[C@@H](CCCCN)C(=O)N[C@@H](CC(=O)O)C(=O)N[C@@H](CCCCN)C(=O)N[C@@H](CC(=O)O)C(=O)N[C@@H](CC(N)=O)C(=O)N[C@H](C(=O)N[C@@H](C)C(=O)N1CCC[C@H]1C(=O)N1CCC[C@H]1C(=O)N[C@H](C(=O)N[C@@H](CC(N)=O)C(=O)N[C@H](C(=O)NCC(=O)N[C@@H](CO)C(=O)N[C@@H](CC(N)=O)C(=O)NCC(=O)N1C[C@H](O)C[C@H]1C(N)=O)C(C)C)[C@@H](C)O)C(C)C)[C@@H](C)O [compound 97] ({C20 diacid-γGlu}-KCATATCTVQRLAEQIYQFTDKDKDNVAPPTNVGSNG[Hyp]-NH2; disulfide 2-7)
